Entries after “also recorded” stand apart in the source; their conditions may differ. Counter-ions that a name gives are not always drawn. Like-named read-outs stand apart in the source and are kept apart here.
System: pediatric patients with recurrent or refractory solid and CNS tumors
[1] = Dose Level 1, 80 mg/m^2, Part A, 6 evaluable
[2] = Dose Level 2, 100 mg/m^2, Part A, 5 evaluable
[3] = Dose Level 3, 125 mg/m^2, Part A, 4 evaluable
[4] = Dose Level 4, 150 mg/m^2, Part A, 5 evaluable
[5] = Dose Level 4, 150 mg/m^2, Part PK (expansion cohort), 5 evaluable
[6] = cycle 1, All Dose Levels (N=25)
[7] = cycle 1, Dose Level 1 (N=6), 80 mg/m^2
[8] = cycle 1, Dose Level 2 (N=5), 100 mg/m^2
[9] = cycle 1, Dose Level 3 (N=4), 125 mg/m^2
[10] = cycle 1, Dose Level 4 (N=10), 150 mg/m^2
[11] = cycle 1, drug-related, all dose levels, 25 evaluable

## COc1cccc(OCCCN)c1-c1cc(Nc2cnc(C#N)cn2)n[nH]1 [prexasertib, Prexasertib mesylate monohydrate]
22/25 patients
  Grade 4 neutropenia, patients: 88%
[1]
  No. of Patients with Cycle 1 DLTs: 0
  No. of Patients with Later-Cycle DLTs: 0
[2]
  No. of Patients with Cycle 1 DLTs: 0
  No. of Patients with Later-Cycle DLTs: 0
[3]
  No. of Patients with Cycle 1 DLTs: 0
  No. of Patients with Later-Cycle DLTs: 0
[4]
  No. of Patients with Cycle 1 DLTs: 0
  No. of Patients with Later-Cycle DLTs: 0
[5]
  No. of Patients with Cycle 1 DLTs: 0
  No. of Patients with Later-Cycle DLTs: 0
IV days 1 and 15 of 28-day cycle, up to 150 mg/m^2
  maximum tolerated dose (MTD): not defined; also recorded: not reached; also recorded: did not reach
[6]
  Alanine aminotransferase increased, All: 5 (20) No. (%)
  Alanine aminotransferase increased, ≥ Grade 3: 1 (4) No. (%)
  Anemia, All: 19 (76) No. (%)
  Anemia, ≥ Grade 3: 3 (12) No. (%)
  Anorexia, All: 3 (12) No. (%)
  Anorexia, ≥ Grade 3: 0 (0) No. (%)
  Aspartate aminotransferase increased, All: 4 (16) No. (%)
  Aspartate aminotransferase increased, ≥ Grade 3: 0 (0) No. (%)
  Diarrhea, All: 4 (16) No. (%)
  Diarrhea, ≥ Grade 3: 0 (0) No. (%)
  Electrocardiogram QT corrected interval prolonged, All: 9 (36) No. (%)
  Electrocardiogram QT corrected interval prolonged, ≥ Grade 3: 0 (0) No. (%)
  Fatigue, All: 6 (24) No. (%)
  Fatigue, ≥ Grade 3: 0 (0) No. (%)
  Headache, All: 3 (12) No. (%)
  Headache, ≥ Grade 3: 0 (0) No. (%)
  Hypokalemia, All: 5 (20) No. (%)
  Hypokalemia, ≥ Grade 3: 0 (0) No. (%)
  Hypophosphatemia, All: 4 (16) No. (%)
  Hypophosphatemia, ≥ Grade 3: 0 (0) No. (%)
  Infusion-related reaction, All: 3 (12) No. (%)
  Infusion-related reaction, ≥ Grade 3: 0 (0) No. (%)
  Lymphocyte count decreased, All: 12 (48) No. (%)
  Lymphocyte count decreased, ≥ Grade 3: 6 (24) No. (%)
  Myalgia, All: 3 (12) No. (%)
  Myalgia, ≥ Grade 3: 0 (0) No. (%)
  Nausea, All: 5 (20) No. (%)
  Nausea, ≥ Grade 3: 0 (0) No. (%)
  Neutrophil count decreased, All: 25 (100) No. (%)
  Neutrophil count decreased, ≥ Grade 3: 25 (100) No. (%)
  Platelet count decreased, All: 21 (84) No. (%)
  Platelet count decreased, ≥ Grade 3: 6 (24) No. (%)
  Vomiting, All: 6 (24) No. (%)
  Vomiting, ≥ Grade 3: 0 (0) No. (%)
  White blood cell decreased, All: 24 (96) No. (%)
  White blood cell decreased, ≥ Grade 3: 17 (68) No. (%)
[7]
  Alanine aminotransferase increased, All: 2 (33) No. (%)
  Alanine aminotransferase increased, ≥ Grade 3: 0 (0) No. (%)
  Anemia, All: 5 (83) No. (%)
  Anemia, ≥ Grade 3: 0 (0) No. (%)
  Anorexia, All: 2 (33) No. (%)
  Anorexia, ≥ Grade 3: 0 (0) No. (%)
  Aspartate aminotransferase increased, All: 0 (0) No. (%)
  Aspartate aminotransferase increased, ≥ Grade 3: 0 (0) No. (%)
  Diarrhea, All: 2 (33) No. (%)
  Diarrhea, ≥ Grade 3: 0 (0) No. (%)
  Electrocardiogram QT corrected interval prolonged, All: 2 (33) No. (%)
  Electrocardiogram QT corrected interval prolonged, ≥ Grade 3: 0 (0) No. (%)
  Fatigue, All: 0 (0) No. (%)
  Fatigue, ≥ Grade 3: 0 (0) No. (%)
  Headache, All: 0 (0) No. (%)
  Headache, ≥ Grade 3: 0 (0) No. (%)
  Hypokalemia, All: 0 (0) No. (%)
  Hypokalemia, ≥ Grade 3: 0 (0) No. (%)
  Hypophosphatemia, All: 1 (17) No. (%)
  Hypophosphatemia, ≥ Grade 3: 0 (0) No. (%)
  Infusion-related reaction, All: 1 (17) No. (%)
  Infusion-related reaction, ≥ Grade 3: 0 (0) No. (%)
  Lymphocyte count decreased, All: 3 (50) No. (%)
  Lymphocyte count decreased, ≥ Grade 3: 2 (33) No. (%)
  Myalgia, All: 0 (0) No. (%)
  Myalgia, ≥ Grade 3: 0 (0) No. (%)
  Nausea, All: 1 (17) No. (%)
  Nausea, ≥ Grade 3: 0 (0) No. (%)
  Neutrophil count decreased, All: 6 (100) No. (%)
  Neutrophil count decreased, ≥ Grade 3: 6 (100) No. (%)
  Platelet count decreased, All: 4 (67) No. (%)
  Platelet count decreased, ≥ Grade 3: 1 (17) No. (%)
  Vomiting, All: 1 (17) No. (%)
  Vomiting, ≥ Grade 3: 0 (0) No. (%)
  White blood cell decreased, All: 5 (83) No. (%)
  White blood cell decreased, ≥ Grade 3: 4 (67) No. (%)
[8]
  Alanine aminotransferase increased, All: 2 (40) No. (%)
  Alanine aminotransferase increased, ≥ Grade 3: 1 (20) No. (%)
  Anemia, All: 3 (60) No. (%)
  Anemia, ≥ Grade 3: 1 (20) No. (%)
  Anorexia, All: 0 (0) No. (%)
  Anorexia, ≥ Grade 3: 0 (0) No. (%)
  Aspartate aminotransferase increased, All: 3 (60) No. (%)
  Aspartate aminotransferase increased, ≥ Grade 3: 0 (0) No. (%)
  Diarrhea, All: 1 (20) No. (%)
  Diarrhea, ≥ Grade 3: 0 (0) No. (%)
  Electrocardiogram QT corrected interval prolonged, All: 1 (20) No. (%)
  Electrocardiogram QT corrected interval prolonged, ≥ Grade 3: 0 (0) No. (%)
  Fatigue, All: 2 (40) No. (%)
  Fatigue, ≥ Grade 3: 0 (0) No. (%)
  Headache, All: 0 (0) No. (%)
  Headache, ≥ Grade 3: 0 (0) No. (%)
  Hypokalemia, All: 2 (40) No. (%)
  Hypokalemia, ≥ Grade 3: 0 (0) No. (%)
  Hypophosphatemia, All: 0 (0) No. (%)
  Hypophosphatemia, ≥ Grade 3: 0 (0) No. (%)
  Infusion-related reaction, All: 1 (20) No. (%)
  Infusion-related reaction, ≥ Grade 3: 0 (0) No. (%)
  Lymphocyte count decreased, All: 2 (40) No. (%)
  Lymphocyte count decreased, ≥ Grade 3: 0 (0) No. (%)
  Myalgia, All: 1 (20) No. (%)
  Myalgia, ≥ Grade 3: 0 (0) No. (%)
  Nausea, All: 1 (20) No. (%)
  Nausea, ≥ Grade 3: 0 (0) No. (%)
  Neutrophil count decreased, All: 5 (100) No. (%)
  Neutrophil count decreased, ≥ Grade 3: 5 (100) No. (%)
  Platelet count decreased, All: 5 (100) No. (%)
  Platelet count decreased, ≥ Grade 3: 2 (40) No. (%)
  Vomiting, All: 1 (20) No. (%)
  Vomiting, ≥ Grade 3: 0 (0) No. (%)
  White blood cell decreased, All: 5 (100) No. (%)
  White blood cell decreased, ≥ Grade 3: 3 (60) No. (%)
[9]
  Alanine aminotransferase increased, All: 0 (0) No. (%)
  Alanine aminotransferase increased, ≥ Grade 3: 0 (0) No. (%)
  Anemia, All: 3 (75) No. (%)
  Anemia, ≥ Grade 3: 1 (25) No. (%)
  Anorexia, All: 0 (0) No. (%)
  Anorexia, ≥ Grade 3: 0 (0) No. (%)
  Aspartate aminotransferase increased, All: 0 (0) No. (%)
  Aspartate aminotransferase increased, ≥ Grade 3: 0 (0) No. (%)
  Diarrhea, All: 0 (0) No. (%)
  Diarrhea, ≥ Grade 3: 0 (0) No. (%)
  Electrocardiogram QT corrected interval prolonged, All: 2 (50) No. (%)
  Electrocardiogram QT corrected interval prolonged, ≥ Grade 3: 0 (0) No. (%)
  Fatigue, All: 2 (50) No. (%)
  Fatigue, ≥ Grade 3: 0 (0) No. (%)
  Headache, All: 1 (25) No. (%)
  Headache, ≥ Grade 3: 0 (0) No. (%)
  Hypokalemia, All: 1 (25) No. (%)
  Hypokalemia, ≥ Grade 3: 0 (0) No. (%)
  Hypophosphatemia, All: 0 (0) No. (%)
  Hypophosphatemia, ≥ Grade 3: 0 (0) No. (%)
  Infusion-related reaction, All: 0 (0) No. (%)
  Infusion-related reaction, ≥ Grade 3: 0 (0) No. (%)
  Lymphocyte count decreased, All: 2 (50) No. (%)
  Lymphocyte count decreased, ≥ Grade 3: 2 (50) No. (%)
  Myalgia, All: 0 (0) No. (%)
  Myalgia, ≥ Grade 3: 0 (0) No. (%)
  Nausea, All: 0 (0) No. (%)
  Nausea, ≥ Grade 3: 0 (0) No. (%)
  Neutrophil count decreased, All: 4 (100) No. (%)
  Neutrophil count decreased, ≥ Grade 3: 4 (100) No. (%)
  Platelet count decreased, All: 4 (100) No. (%)
  Platelet count decreased, ≥ Grade 3: 2 (50) No. (%)
  Vomiting, All: 0 (0) No. (%)
  Vomiting, ≥ Grade 3: 0 (0) No. (%)
  White blood cell decreased, All: 4 (100) No. (%)
  White blood cell decreased, ≥ Grade 3: 3 (75) No. (%)
[10]
  Alanine aminotransferase increased, All: 1 (10) No. (%)
  Alanine aminotransferase increased, ≥ Grade 3: 0 (0) No. (%)
  Anemia, All: 8 (80) No. (%)
  Anemia, ≥ Grade 3: 1 (10) No. (%)
  Anorexia, All: 1 (10) No. (%)
  Anorexia, ≥ Grade 3: 0 (0) No. (%)
  Aspartate aminotransferase increased, All: 1 (10) No. (%)
  Aspartate aminotransferase increased, ≥ Grade 3: 0 (0) No. (%)
  Diarrhea, All: 1 (10) No. (%)
  Diarrhea, ≥ Grade 3: 0 (0) No. (%)
  Electrocardiogram QT corrected interval prolonged, All: 4 (40) No. (%)
  Electrocardiogram QT corrected interval prolonged, ≥ Grade 3: 0 (0) No. (%)
  Fatigue, All: 2 (20) No. (%)
  Fatigue, ≥ Grade 3: 0 (0) No. (%)
  Headache, All: 2 (20) No. (%)
  Headache, ≥ Grade 3: 0 (0) No. (%)
  Hypokalemia, All: 2 (20) No. (%)
  Hypokalemia, ≥ Grade 3: 0 (0) No. (%)
  Hypophosphatemia, All: 3 (30) No. (%)
  Hypophosphatemia, ≥ Grade 3: 0 (0) No. (%)
  Infusion-related reaction, All: 1 (10) No. (%)
  Infusion-related reaction, ≥ Grade 3: 0 (0) No. (%)
  Lymphocyte count decreased, All: 5 (50) No. (%)
  Lymphocyte count decreased, ≥ Grade 3: 2 (20) No. (%)
  Myalgia, All: 2 (20) No. (%)
  Myalgia, ≥ Grade 3: 0 (0) No. (%)
  Nausea, All: 3 (30) No. (%)
  Nausea, ≥ Grade 3: 0 (0) No. (%)
  Neutrophil count decreased, All: 10 (100) No. (%)
  Neutrophil count decreased, ≥ Grade 3: 10 (100) No. (%)
  Platelet count decreased, All: 8 (80) No. (%)
  Platelet count decreased, ≥ Grade 3: 1 (10) No. (%)
  Vomiting, All: 4 (40) No. (%)
  Vomiting, ≥ Grade 3: 0 (0) No. (%)
  White blood cell decreased, All: 10 (100) No. (%)
  White blood cell decreased, ≥ Grade 3: 7 (70) No. (%)
[11]
  grade 3/4 anemia, patients: 12%
  grade 3/4 leukopenia, patients: 68%
  grade 3/4 lymphopenia, patients: 24%
  grade 3/4 neutropenia, patients: 100%
  grade 3/4 thrombocytopenia, patients: 24%
Cycle 1 or later, all dose levels 80-150 mg/m^2
  dose-limiting toxicities (DLTs): no cycle 1 or later dose-limiting toxicities; also recorded: No DLTs

From publication PMC9090141 (Pediatric blood & cancer, 2021)
